Results taken from US10023602B2, “Hamamelitannin analogues and uses thereof” (Universiteit Gent, priority 2014, dated 2018).

What was measured:
[1] = test system: methicillin resistant S. aureus Mu50 strain (S. aureus ATCC700699) biofilm; assay: Biofilm susceptibility to vancomycin, combination treatment regimen (mature biofilm treated with compound plus vancomycin); assay type: cell-based; details: for Combin. (100 μM): percentage Colony Forming Units (CFU's) per biofilm: compound 100 μM together with VAN 20 μg/ml on mature biofilm; for Combin. (100 μM): percentage Colony Forming Units (CFU's) per biofilm / Combin. (25 μM): percentage Colony Forming Units (CFU's) per biofilm: compared to the untreated (negative) control; for Combin. (25 μM): percentage Colony Forming Units (CFU's) per biofilm: compound 25 μM together with VAN 20 μg/ml on mature biofilm; for EC50: concentration needed to get 50% killing compared to antibiotic alone (VAN 20 μg/ml) and complete killing, read-out: Combin. (EC50)
Experimental: (§1) The compounds were evaluated for their effect on biofilm susceptibility both under pre-treatment and combination treatment regimens. In the pre-treatment regimen, a methicillin resistant S. aureus Mu50 strain (S. aureus ATCC700699) was allowed to form biofilms in the presence of the compounds after which the biofilm was treated with vancomycin (20 μg/ml). In the combination treatment regimen, S. aureus Mu50 was allowed to form a mature biofilm after which it was treated with a combination of a compound and vancomycin. In brief, 100 μl of a standardized inoculum (10^8 CFU/ml) was placed in the wells of a round-bottom 96-well microtiter plate. The cells were allowed to adhere to the plate in the absence (combined treatment) or presence (pre-treatment) of the compounds (0.1-250 μM) for 4 h at 37° C. After this adhesion step, non-adhered cells were removed, the wells were rinsed and fresh medium with or without the compounds was added. The plates were incubated for an additional 20 h at 37° C. After this, the medium was removed, biofilms were rinsed with physiological saline and vancomycin (20 μg/ml) was added alone (pre-treatment) or with the compounds (combined treatment, 0.1-250 μM). Plates were placed at 37° C. for 24 h after which medium was removed, wells were rinsed and the surviving cells in each condition were collected. The number of surviving cells under each condition was compared to vancomycin treatment alone and was assessed by conventional plating. The REF compound (hamamelitannin) was also observed for its effect on biofilm susceptibility towards other antibiotics (incl. vancomycin, cefoxitin, tobramycin, cefazolin, cefalonium, daptomycin, linezolide and cephalexin). Biofilms were formed as described above and were treated with the antibiotics alone or in combination with the REF compound (250 μM). The number of surviving cells under each condition was compared to the untreated control biofilm and was assessed by conventional plating.

[2] = test system: methicillin resistant S. aureus Mu50 strain (S. aureus ATCC700699) biofilm; assay: Biofilm susceptibility to vancomycin, pre-treatment regimen (biofilm formed in presence of compound, then vancomycin); assay type: cell-based; details: for Pretreat (100 μM): percentage Colony Forming Units (CFU's) per biofilm: compound 100 μM during biofilm formation; for Pretreat (100 μM): percentage Colony Forming Units (CFU's) per biofilm / Pretreat. (25 μM): percentage Colony Forming Units (CFU's) per biofilm: then VAN 20 μg/ml, compared to the untreated (negative) control; for Pretreat. (25 μM): percentage Colony Forming Units (CFU's) per biofilm: compound 25 μM during biofilm formation; for EC50: concentration needed to get 50% killing compared to antibiotic alone (VAN 20 μg/ml) and complete killing, read-out: Pretreat. (EC50)
Experimental: as §1

Row | Structure (SMILES) | Combin. (100 μM): percentage Colony Forming Units (CFU's) per biofilm [1] | Pretreat (100 μM): percentage Colony Forming Units (CFU's) per biofilm [2] | Combin. (25 μM): percentage Colony Forming Units (CFU's) per biofilm [1] | Pretreat. (25 μM): percentage Colony Forming Units (CFU's) per biofilm [2] | EC50 [1] | EC50 [2]
1 | O=C(NC[C@H]1OC[C@@](O)(CNC(=O)c2ccccc2)[C@@H]1O)c1cccc(F)c1 [compound 161, N-(((2R,3R,4S)-4-(benzamidomethyl)-3,4-dihydroxytetrahydrofuran-2-yl)methyl)-3-fluorobenzamide] | 16.57 percentage | 9.353 percentage |  |  |  | 
2 | O=C(NC[C@H]1OC[C@@](O)(CNC(=O)c2ccccc2)[C@@H]1O)c1ccc(F)c(F)c1 [compound 181, N-(((2R,3R,4S)-4-(benzamidomethyl)-3,4-dihydroxytetrahydrofuran-2-yl)methyl)-3,4-difluorobenzamide] | 59.09 percentage | 67.74 percentage |  |  |  | 
3 | CN(C)c1ccc(C(=O)NC[C@H]2OC[C@@](O)(CNC(=O)c3ccccc3)[C@@H]2O)cc1 [compound 156, N-(((2R,3R,4S)-4-(benzamidomethyl)-3,4-dihydroxytetrahydrofuran-2-yl)methyl)-4-(dimethylamino)benzamide] | 11.27 percentage | 16.58 percentage |  |  |  | 
4 | O=C(NC[C@]1(O)CO[C@H](CNC(=O)c2ccccc2Cl)[C@H]1O)c1ccncc1 [compound 239, N-(((3S,4R,5R)-5-((2-chlorobenzamido)methyl)-3,4-dihydroxytetrahydrofuran-3-yl)methyl)isonicotinamide] |  |  | 58.76 percentage | 49.98 percentage |  | 
5 | O=C(NC[C@H]1OC[C@@](O)(CNC(=O)c2ccccc2)[C@@H]1O)Nc1ccccc1 [compound 223, N-(((3S,4R,5R)-3,4-dihydroxy-5-((3-phenylureido)methyl)tetrahydrofuran-3-yl)methyl)benzamide] | 18.72 percentage | 23.99 percentage |  |  |  | 
6 | Cc1ccc(C(=O)NC[C@]2(O)CO[C@H](CNC(=O)c3ccccc3Cl)[C@H]2O)cc1 [compound 232, 2-chloro-N-(((2R,3R,4S)-3,4-dihydroxy-4-((4-methylbenzamido)methyl)tetrahydrofuran-2-yl)methyl)benzamide] |  |  | 42.16 percentage | 52.41 percentage | 41.9 µM | 79.7 µM
7 | O=C(NC[C@]1(O)CO[C@H](CNC(=O)c2cccnn2)[C@H]1O)c1ccccc1 [compound 206, N-(((2R,3R,4S)-4-(benzamidomethyl)-3,4-dihydroxytetrahydrofuran-2-yl)methyl)pyridazine-3-carboxamide] | 15.17 percentage | 6.460 percentage |  |  |  | 
8 | CN(C)c1ccccc1C(=O)NC[C@H]1OC[C@@](O)(CNC(=O)c2ccccc2)[C@@H]1O [compound 174, N-(((2R,3R,4S)-4-(benzamidomethyl)-3,4-dihydroxytetrahydrofuran-2-yl)methyl)-2-(dimethylamino)benzamide] | 11.11 percentage | 28.01 percentage |  |  |  | 
9 | COc1ccccc1C(=O)NC[C@H]1OC[C@@](O)(CNC(=O)c2ccccc2)[C@@H]1O [compound 172, N-(((2R,3R,4S)-4-(benzamidomethyl)-3,4-dihydroxytetrahydrofuran-2-yl)methyl)-2-methoxybenzamide] | 31.40 percentage | 15.37 percentage |  |  |  | 
10 | O=C(NC[C@H]1OC(O)[C@@](O)(CNC(=O)c2cc(O)c(O)c(O)c2)[C@@H]1O)c1cc(O)c(O)c(O)c1 (stereo partly drawn) [compound 15, N,N′-(((2R,3R,4R)-3,4,5-trihydroxytetrahydrofuran-2,4-diyl)bis(methylene))bis(3,4,5-trihydroxybenzamide)] | 57.74 percentage | 22.35 percentage |  |  | 191 µM | 63.8 µM
11 | O=C(NC[C@]1(O)CO[C@H](CNC(=O)c2ccccc2Cl)[C@H]1O)c1ccnnc1 [compound 255, N-(((3S,4R,5R)-5-((2-chlorobenzamido)methyl)-3,4-dihydroxytetrahydrofuran-3-yl)methyl)pyridazine-4-carboxamide] | 25.78 percentage | 8.03 percentage |  |  | 55.7 µM | 15 µM
12 | O=C(NC[C@]1(O)CO[C@H](CNC(=O)c2ccccc2Cl)[C@H]1O)c1ccccc1 [compound 171, N-(((2R,3R,4S)-4-(benzamidomethyl)-3,4-dihydroxytetrahydrofuran-2-yl)methyl)-2-chlorobenzamide] | 7.776 percentage | 11.56 percentage |  |  | 7.98 µM | 0.389 µM
13 | O=C(NC[C@]1(O)CO[C@H](CN2C(=O)c3ccccc3C2=O)[C@H]1O)c1ccnnc1 [compound 258, N-(((3S,4R,5R)-5-((1,3-dioxoisoindolin-2-yl)methyl)-3,4-dihydroxytetrahydrofuran-3-yl)methyl)pyridazine-4-carboxamide] | 23.56 percentage | 0.73 percentage |  |  | 11.4 µM | 5.85 µM
14 | O=C(CCc1ccccc1)NC[C@H]1OC[C@@](O)(CNC(=O)c2ccccc2)[C@@H]1O [compound 190, N-(((3S,4R,5R)-3,4-dihydroxy-5-((3-phenylpropanamido)methyl)tetrahydrofuran-3-yl)methyl)benzamide] | 29.24 percentage | 64.43 percentage |  |  |  | 
15 | O=C(NC[C@]1(O)CO[C@H](Cn2nncc2-c2ccccc2)[C@H]1O)c1ccccc1 [compound 222, N-(((3S,4R,5R)-3,4-dihydroxy-5-((5-phenyl-1H-1,2,3-triazol-1-yl)methyl)tetrahydrofuran-3-yl)methyl)benzamide] | 73.90 percentage | 47.10 percentage |  |  |  | 
16 | CC(=O)NC[C@H]1OC[C@@](O)(CNC(=O)c2ccccc2)[C@@H]1O [compound 225, N-(((3S,4R,5R)-5-(acetamidomethyl)-3,4-dihydroxytetrahydrofuran-3-yl)methyl)benzamide] | 27.38 percentage | 23.96 percentage |  |  |  | 
17 | O=C(NC[C@]1(O)CO[C@H](CNC(=O)c2c(Cl)ccnc2Cl)[C@H]1O)c1ccccc1 [compound 196, N-(((2R,3R,4S)-4-(benzamidomethyl)-3,4-dihydroxytetrahydrofuran-2-yl)methyl)-2,4-dichloronicotinamide] | 8.072 percentage | 21.86 percentage |  |  | 7.88 µM | 13 µM
18 | CN(C)c1ccc(C(=O)NC[C@]2(O)CO[C@H](CNC(=O)c3ccccc3Cl)[C@H]2O)cc1 [compound 237, 2-chloro-N-(((2R,3R,4S)-4-((4-(dimethylamino)benzamido)methyl)-3,4-dihydroxytetrahydrofuran-2-yl)methyl)benzamide] |  |  | 47.56 percentage | 58.79 percentage | 69.7 µM | 47.6 µM
19 | O=C(NC[C@H]1OC[C@@](O)(CNC(=O)c2ccccc2Cl)[C@@H]1O)c1ccc(-c2ccccc2)cc1 [compound 250, N-(((2R,3R,4S)-4-((2-chlorobenzamido)methyl)-3,4-dihydroxytetrahydrofuran-2-yl)methyl)-[1,1′-biphenyl]-4-carboxamide] | 29.48 percentage | 18.82 percentage |  |  | 61.3 µM | 23 µM
20 | O=C(NC[C@H]1OC[C@@](O)(CNC(=O)c2ccccc2)[C@@H]1O)c1ccncc1 [compound 158, N-(((2R,3R,4S)-4-(benzamidomethyl)-3,4-dihydroxytetrahydrofuran-2-yl)methyl)isonicotinamide] | 13.89 percentage | 7.268 percentage |  |  | 19.2 µM | 9.94 µM
